Data set [1] concerns J774. In words: Cytotoxicity in mouse J774 cells at 100 ug/mL after 24 hrs. In kind it is cell-based. As to conditions: j774, 24 h.
The subject of data set [2] is J774. In words: Cytotoxicity in mouse J774 cells at 100 ug/mL after 48 hrs. In kind it is cell-based. As to conditions: j774, 48 h.
The test system of data set [3] is Trypanosoma cruzi. The experiment in a line: Antitrypanosomal activity against Trypanosoma cruzi bloodstream trypomastigote in mouse blood assessed as lysis of trypomastigotes at 250 ug/mL after 24 hrs relative to control. It counts as functional.
The next data set relates to Leishmania amazonensis. In words: Antileishmanial activity against Leishmania amazonensis MHOM/BR/PH8 promastigote assessed as lysis at 100 ug/mL after 72 hrs. It counts as functional.
The next data set relates to Leishmania infantum. The experiment in a line: Antileishmanial activity against Leishmania infantum MHOM/FR/91/LEM2259 promastigote assessed as lysis at 100 ug/mL after 72 hrs. It counts as functional.
The next data set concerns Leishmania braziliensis. The experiment in a line: Antileishmanial activity against Leishmania braziliensis MHOM/BR/75/M2903 promastigote assessed as lysis at 100 ug/mL after 72 hrs. In kind it is functional.
Data set [4] deals with Trypanosoma cruzi. The experiment in a line: Antitrypanosomal activity against Trypanosoma cruzi bloodstream trypomastigote in mouse blood after 24 hrs relative to control. In kind it is functional, organism-based.
Data set [5] deals with Trypanosoma cruzi. The experiment in a line: Inhibition of respiration in Trypanosoma cruzi Tulahuen 2 assessed as oxygen uptake at 0.258 mM. It counts as functional. Also noted: scale not given: the % may be the effect or the level left.
The test system of data set [6] is Trypanosoma cruzi. The experiment in a line: Inhibition of respiration in Trypanosoma cruzi Tulahuen 2 assessed as oxygen uptake at 0.515 mM. It counts as functional. Also noted: scale not given: the % may be the effect or the level left.
In data set [7] the test system is Trypanosoma cruzi. The experiment in a line: Inhibition of respiration in Trypanosoma cruzi Tulahuen 2 assessed as oxygen uptake at 1.030 mM. In kind it is functional. Also noted: scale not given: the % may be the effect or the level left.
Data set [8] relates to Trypanosoma cruzi. In words: Antitrypanosomal activity against Trypanosoma cruzi bloodstream trypomastigote infected in BALB/c mouse assessed as parasitemia at 30 mg/kg, po after 60 days by colorimetric method. Also noted: dose 30 mg/kg. In kind it is functional, organism-based.
Data set [9] in a line: Toxicity in BALB/c mouse assessed as survival fraction at 30 mg/kg, po after 9 weeks. As to conditions: in vivo. Also noted: dose 30 mg/kg, route oral. It counts as organism-based.
Data set [10] has as its system Trypanosoma cruzi. The experiment in a line: Antitrypanosomal activity against Trypanosoma cruzi bloodstream trypomastigote infected in BALB/c mouse assessed as antibodies at 30 mg/kg, po after 60 days by colorimetric method. It counts as functional, organism-based. Also noted: dose 30 mg/kg.
In data set [11] the test system is Trypanosoma cruzi. The experiment in a line: Inhibition of respiration in Trypanosoma cruzi Tulahuen 2 assessed as oxygen uptake at 0.156 mM. In kind it is functional. Also noted: scale not given: the % may be the effect or the level left.
For data set [12], the system named is Trypanosoma cruzi. In words: Inhibition of respiration in Trypanosoma cruzi Tulahuen 2 assessed as oxygen uptake at 0.325 mM. It counts as functional. Also noted: scale not given: the % may be the effect or the level left.
Data set [13] relates to Trypanosoma cruzi. The experiment in a line: Inhibition of respiration in Trypanosoma cruzi Tulahuen 2 assessed as oxygen uptake at 0.467 mM. It counts as functional. Also noted: scale not given: the % may be the effect or the level left.
Data set [14] concerns Trypanosoma cruzi. In words: Inhibition of respiration in Trypanosoma cruzi Tulahuen 2 assessed as oxygen uptake at 0.622 mM. It counts as functional. Also noted: scale not given: the % may be the effect or the level left.
Data set [15] deals with Trypanosoma cruzi. In words: Inhibition of respiration in Trypanosoma cruzi Tulahuen 2 assessed as oxygen uptake. In kind it is functional, organism-based.
Data set [16] has as its system Trypanosoma cruzi. In words: Antitrypanosomal activity against Trypanosoma cruzi bloodstream trypomastigote infected in BALB/c mouse assessed as parasitemia at 50 mg/kg, po after 60 days by colorimetric method. It counts as functional, organism-based. Also noted: dose 50 mg/kg.
Data set [17] can be described thus: Toxicity in BALB/c mouse assessed as survival fraction at 50 mg/kg, po after 9 weeks. As to conditions: in vivo. Also noted: dose 50 mg/kg, route oral. It counts as organism-based.
Data set [18] relates to Trypanosoma cruzi. In words: Antitrypanosomal activity against Trypanosoma cruzi bloodstream trypomastigote infected in BALB/c mouse assessed as antibodies at 50 mg/kg, po after 60 days by colorimetric method. It counts as functional, organism-based. Also noted: dose 50 mg/kg.
The subject of data set [19] is Trypanosoma cruzi. In words: Inhibition of respiration in Trypanosoma cruzi Tulahuen 2 assessed as oxygen uptake at 1.032 mM. It counts as functional. Also noted: scale not given: the % may be the effect or the level left.
For data set [20], the system named is Trypanosoma cruzi. In words: Inhibition of respiration in Trypanosoma cruzi Tulahuen 2 assessed as oxygen uptake at 0.091 mM. In kind it is functional. Also noted: scale not given: the % may be the effect or the level left.
Data set [21] deals with Trypanosoma cruzi. The experiment in a line: Inhibition of respiration in Trypanosoma cruzi Tulahuen 2 assessed as oxygen uptake at 0.172 mM. It counts as functional. Also noted: scale not given: the % may be the effect or the level left.
Data set [22] has as its system Trypanosoma cruzi. In words: Inhibition of respiration in Trypanosoma cruzi Tulahuen 2 assessed as oxygen uptake at 0.272 mM. It counts as functional. Also noted: scale not given: the % may be the effect or the level left.
Data set [23] concerns Trypanosoma cruzi. The experiment in a line: Inhibition of respiration in Trypanosoma cruzi Tulahuen 2 assessed as oxygen uptake at 0.181 mM. In kind it is functional. Also noted: scale not given: the % may be the effect or the level left.
The subject of data set [24] is Trypanosoma cruzi. In words: Inhibition of respiration in Trypanosoma cruzi Tulahuen 2 assessed as oxygen uptake at 0.362 mM. In kind it is functional. Also noted: scale not given: the % may be the effect or the level left.
Data set [25] concerns Trypanosoma cruzi. In words: Inhibition of respiration in Trypanosoma cruzi Tulahuen 2 assessed as oxygen uptake at 0.426 mM. Also noted: scale not given: the % may be the effect or the level left. In kind it is functional.
The test system of data set [26] is Trypanosoma cruzi. The experiment in a line: Inhibition of respiration in Trypanosoma cruzi Tulahuen 2 assessed as oxygen uptake at 0.543 mM. It counts as functional. Also noted: scale not given: the % may be the effect or the level left.
The test system of data set [27] is Trypanosoma cruzi. In words: Inhibition of respiration in Trypanosoma cruzi Tulahuen 2 assessed as oxygen uptake at 0.724 mM. In kind it is functional. Also noted: scale not given: the % may be the effect or the level left.

Calls of active or inactive are those of the source. The rule behind the calls is not given here. Some results are limits rather than exact numbers.

`COc1nn(CCOCCN2CCCCC2)c2ccc([N+](=O)[O-])cc12.Cl`: the Activity entry is given as “Non-toxic” in the data set on J774 [1]; “Non-toxic” in the data set on J774 [2]; 85% in the data set on Trypanosoma cruzi [3]; less than 60% in the data set on Leishmania amazonensis; less than 60% with Leishmania infantum; less than 60% in the data set with Leishmania braziliensis. The Activity with Trypanosoma cruzi [5] is on record as 118%; with Trypanosoma cruzi [6], 130%; with Trypanosoma cruzi [7], 155%. Moreover, the IC50 with Trypanosoma cruzi [4] was greater than 50 µM. Moreover, the outcome with Trypanosoma cruzi [8] and with Trypanosoma cruzi [10] was Active. Also, in [9], the survival at 1512 h amounted to 87.5%.

In the case of `CN(C)CCCCCn1nc(OCc2ccccc2)c2cc([N+](=O)[O-])ccc21`, the Activity result in the data set with J774 [1] is “Toxic”; in the data set with J774 [2], “Toxic”; in the data set with Trypanosoma cruzi [3], 100%; with Trypanosoma cruzi [11], 99%; with Trypanosoma cruzi [12], 12%; in the data set with Trypanosoma cruzi [13] it was 11%. Besides, the values for the Activity with Trypanosoma cruzi [14] and in the data set with Trypanosoma cruzi [15] were 7% and “Dose-dependent effect”, respectively. The compound also registered an IC50 in the data set on Trypanosoma cruzi [4] of 12.5 µM.

As to `CN(C)CCOCCn1nc(O)c2cc([N+](=O)[O-])ccc21`, the figures for the Activity result in the data set with J774 [1], in the data set on J774 [2] and with Trypanosoma cruzi [3] were “Non-toxic”, “Non-toxic” and 18%, respectively.

For `O=C(Cn1ccnc1[N+](=O)[O-])NCc1ccccc1` [BENZNIDAZOLE], the outcome in the data set with Trypanosoma cruzi [16] and in the data set on Trypanosoma cruzi [18] was Active. The survival at 1512 h in [17] stood at 60%.

Consider `COc1nn(CCCCCN2CCCCC2)c2ccc([N+](=O)[O-])cc12.Cl`, for which the Activity entry in the data set with J774 [1] is recorded as “Toxic”; with J774 [2], “Toxic”; in the data set on Trypanosoma cruzi [3] it was 100%; in the data set with Leishmania amazonensis, less than 60%; with Leishmania infantum, less than 60%; with Leishmania braziliensis it was less than 60%.

`O=[N+]([O-])c1ccc2c(c1)c(O)nn2Cc1ccccc1CN1CCCCC1`: the Activity entry in the data set with J774 [1] is reported as “Non-toxic”; with J774 [2] it was “Non-toxic”; in the data set with Trypanosoma cruzi [3], 75%; in the data set with Leishmania amazonensis it was less than 60%; with Leishmania infantum, less than 60%; with Leishmania braziliensis, less than 60%. The Activity with Trypanosoma cruzi [19] is 109%. The compound further returned a 50% inhibitory concentration (IC50) in the data set with Trypanosoma cruzi [4] greater than 50 µM.

With `N=C(N)c1ccc(OCCCCCOc2ccc(C(=N)N)cc2)cc1` [PENTAMIDINE], the Activity in the data set on Leishmania amazonensis, in the data set on Leishmania infantum and in the data set with Leishmania braziliensis was 100% in each case.

As for `CN(C)CCCCCn1nc(O)c2cc([N+](=O)[O-])ccc21`, the Activity result is listed as “Non-toxic” with J774 [1], “Non-toxic” with J774 [2] and 29% in the data set with Trypanosoma cruzi [3].

With `O=[N+]([O-])c1ccc2c(c1)c(OCc1ccccc1)nn2CCCCCN1CCCCC1`, the Activity result is “Toxic” in the data set on J774 [1]; “Toxic” in the data set on J774 [2]; 34% in the data set with Trypanosoma cruzi [3]; 100% in the data set with Leishmania amazonensis; 100% in the data set with Leishmania infantum; 100% in the data set with Leishmania braziliensis. Moreover, the results for the Activity in the data set on Trypanosoma cruzi [20], in the data set on Trypanosoma cruzi [21] and in the data set on Trypanosoma cruzi [22] were 109%, 111% and 100%, respectively. The compound further showed a half-inhibitory concentration (IC50) in the data set with Trypanosoma cruzi [4] of 6.6 µM.

In the case of `CN(C)CCOCCn1nc(OCc2ccccc2)c2cc([N+](=O)[O-])ccc21`, the Activity entry with J774 [1] was “Non-toxic”; in the data set on J774 [2] it was “Non-toxic”; in the data set with Trypanosoma cruzi [3], 87%; in the data set with Leishmania amazonensis it was 100%; in the data set with Leishmania infantum, 100%; with Leishmania braziliensis, 100%. Also, the Activity with Trypanosoma cruzi [23] was 66%; in the data set with Trypanosoma cruzi [24], 10%; in the data set on Trypanosoma cruzi [25] it was 10%; in the data set on Trypanosoma cruzi [26] it was 11%; with Trypanosoma cruzi [27], 9%; in the data set on Trypanosoma cruzi [15] it was “Dose-dependent effect”. Also, in the data set with Trypanosoma cruzi [4], the IC50 amounted to 16.4 µM. For the same compound, the result in the data set on Trypanosoma cruzi [8] and with Trypanosoma cruzi [10] was Active. Also, the survival at 1512 h in data set [9] amounted to 87.5%.

Consider `O=[N+]([O-])c1ccc2c(c1)c(OCc1ccccc1)nn2CCOCCN1CCCCC1`, for which the Activity result in the data set with J774 [1] was “Non-toxic”; in the data set on J774 [2] it was “Non-toxic”; in the data set with Trypanosoma cruzi [3] it was 44%.

In the case of `O=[N+]([O-])c1ccc2c(c1)c(O)nn2CCCCCN1CCCCC1`, the Activity entry is given as “Non-toxic” in the data set on J774 [1]; “Non-toxic” with J774 [2]; 36% in the data set on Trypanosoma cruzi [3]; less than 60% in the data set with Leishmania amazonensis; less than 60% with Leishmania infantum; less than 60% in the data set with Leishmania braziliensis.

As for `COc1nn(CCOCCN(C)C)c2ccc([N+](=O)[O-])cc12.Cl`, the figures for the Activity entry in the data set with J774 [1], in the data set on J774 [2] and in the data set with Trypanosoma cruzi [3] were “Non-toxic”, “Non-toxic” and 77%, respectively.

Turning to `CN(C)c1ccc(C(=C2C=CC(=[N+](C)C)C=C2)c2ccc(N(C)C)cc2)cc1.[Cl-]` [GENTIAN VIOLET], the Activity in the data set with Trypanosoma cruzi [3] was 100%.

As for `O=[N+]([O-])c1ccc2c(c1)c(O)nn2CCOCCN1CCCCC1`, the Activity result in the data set on J774 [1] is recorded as “Non-toxic”; with J774 [2], “Non-toxic”; in the data set on Trypanosoma cruzi [3], 53%.

Turning to `CN(C)Cc1ccccc1Cn1nc(O)c2cc([N+](=O)[O-])ccc21`, the Activity entry is listed as “Non-toxic” in the data set on J774 [1], “Non-toxic” in the data set with J774 [2] and 0% in the data set on Trypanosoma cruzi [3].

The values above are taken from ChEMBL document CHEMBL1137697, “In vitro and in vivo antitrypanosomatid activity of 5-nitroindazoles” (Eur J Med Chem, 2009).
